Source: ChEMBL document CHEMBL5346961, “Discovery and Evaluation of 3-Quinoxalin Urea Derivatives as Potent, Selective, and Orally Available ATM Inhibitors Combined with Chemotherapy for the Treatment of Cancer via Goal-Oriented Molecule Generation and Virtual Screening” (J Med Chem, 2023)
Blank lines part the entries; values can stand above or below the compound they belong to. Calls of active or inactive are those of the source. The calls are words filed in the database; no cut-off is given here.

How the values were obtained:
[1] = Metabolic stability in human liver microsomes assessed as clearance at 1 uM in presence of NADPH-regenerating system by LC-MS/MS analysis; type: ADME, Microsome
MCF7 [2] = assay: Antiproliferative activity against human MCF7 cells assessed as reduction in cell viability incubated for 6 days by MTT assay; type: functional, cell-based; conditions: MCF7, 144 h
[3] = Tmax in Balb/C mouse at 10 mg/kg,iv measured upto 48 hrs by LC-MS/MS analysis; type: ADME, organism-based; conditions: in vivo
[4] = Oral bioavailability in Balb/C mouse at 10 mg/kg measured upto 48 hrs by LC-MS/MS analysis; type: ADME, organism-based; conditions: in vivo
[5] = Cmax in Balb/C mouse at 10 mg/kg,po measured upto 48 hrs by LC-MS/MS analysis; type: ADME, organism-based; design: dose 10 mg/kg, time < 48 hrs, route po; conditions: in vivo
HCT-116 [6] = assay: Antiproliferative activity against human HCT-116 cells assessed as cell survival at 1 uM incubated for 6 days by MTT assay relative to control; type: functional; conditions: HCT-116, 144 h, time 6 day, read-out: Survival
MCF7 [7] = assay: Synergistic antiproliferative activity against human MCF7 cells assessed as fold increase in etoposide IC50 at 200 nM measured after 6 days by MTT assay; type: functional; conditions: time 6 day
[8] = AUC (0 to t) in Balb/C mouse at 10 mg/kg,iv measured upto 48 hrs by LC-MS/MS analysis; type: ADME, organism-based; design: time < 48 hrs, dose 10 mg/kg, route iv; conditions: in vivo
HCT-116 [9] = assay: Induction of DNA damage in human HCT-116 cells assessed as reduction in ATM phosphorylation at S1981 residue at 2 uM measured after 4 hrs by Western blot analysis; type: functional, cell-based
[10] = AUC (0 to t) in Balb/C mouse at 10 mg/kg,po measured upto 48 hrs by LC-MS/MS analysis; type: ADME, organism-based; design: dose 10 mg/kg, time < 48 hrs, route po; conditions: in vivo
MCF7 [11] = assay: Synergistic antiproliferative activity against human MCF7 cells assessed as fold increase in irinotecan IC50 at 200 nM measured after 6 days by MTT assay; type: functional; conditions: time 6 day
[12] = Half life in Balb/C mouse at 10 mg/kg,iv measured upto 48 hrs by LC-MS/MS analysis; type: ADME, organism-based; conditions: in vivo
HCT-116 [13] = assay: Inhibition of colony formation in human HCT-116 cells preincubated for 1 hr followed by exposure to 2 Gy gamma irradiation and measured after 1 week by crystal violet staining based […] assay; type: functional, cell-based; conditions: HCT-116, light or radiation study
[14] = Volume of distribution at steady state in Balb/C mouse at 10 mg/kg,iv measured upto 48 hrs by LC-MS/MS analysis; type: ADME, organism-based; conditions: in vivo, read-out: Vdss
SW-620 [15] = assay: Synergistic antiproliferative activity against human SW620 cells assessed as fold increase in irinotecan IC50 at 200 nM measured after 6 days by MTT assay; type: functional; conditions: time 6 day
[16] = Metabolic stability in human liver microsomes assessed as half life at 1 uM in presence of NADPH-regenerating system by LC-MS/MS analysis; type: ADME, Microsome
HCT-116 [17] = assay: Antiproliferative activity against human HCT-116 cells assessed as reduction in cell viability incubated for 6 days by MTT assay; type: functional, cell-based; conditions: HCT-116, 144 h
[18] = Tmax in Balb/C mouse at 10 mg/kg,po measured upto 48 hrs by LC-MS/MS analysis; type: ADME, organism-based; conditions: in vivo
[19] = Volume of distribution at steady state in Balb/C mouse at 10 mg/kg,po measured upto 48 hrs by LC-MS/MS analysis; type: ADME, organism-based; conditions: in vivo
[20] = Cmax in Balb/C mouse at 10 mg/kg,iv measured upto 48 hrs by LC-MS/MS analysis; type: ADME, organism-based; design: time < 48 hrs, dose 10 mg/kg, route iv; conditions: in vivo
HCT-116 [21] = assay: Induction of DNA damage in human HCT-116 cells assessed as reduction in p21 phosphorylation at T145 residue at 2 uM measured after 4 hrs by Western blot analysis; type: functional, cell-based
HCT-116 [22] = assay: Inhibition of colony formation in human HCT-116 cells assessed as assessed as fold change in IC50 in presence of ionizing radiation; type: functional
[23] = Clearance in Balb/C mouse at 10 mg/kg,po measured upto 48 hrs by LC-MS/MS analysis; type: ADME, organism-based; conditions: in vivo
HCT-116 [24] = assay: Inhibition of colony formation in human HCT-116 cells at 0.01 uM preincubated for 1 hr followed by exposure to 2 Gy gamma irradiation and measured after 1 week by crystal violet staining based […] assay relative to control; type: functional; conditions: HCT-116, light or radiation study, time 169 hrs
SW-620 [25] = assay: Synergistic inhibition of colony formation in human SW620 cells assessed as fold increase in irinotecan IC50 at 200 nM preincubated for 1 hr followed by irinotecan addition and measured after 1 week by crystal violet staining based […] assay; type: functional; conditions: time 169 hrs
SW-620 [26] = assay: Antitumor activity against human SW620 cells xenografted in BALB/c nude mouse model assessed as tumor growth inhibition at 40 mg/kg, po administered once daily for 3 days weekly after irinotecan post treatment for 21 days by caliper method relative to control; type: functional; conditions: SW-620, 504 h, time 21 day, read-out: TGI
[27] = Clearance in Balb/C mouse at 10 mg/kg,iv measured upto 48 hrs by LC-MS/MS analysis; type: ADME, organism-based; conditions: in vivo
SW-620 [28] = assay: Antiproliferative activity against human SW620 cells assessed as reduction in cell viability incubated for 6 days by MTT assay; type: functional, cell-based; conditions: SW-620, 144 h
[29] = Half life in Balb/C mouse at 10 mg/kg,po measured upto 48 hrs by LC-MS/MS analysis; type: ADME, organism-based; conditions: in vivo
[30] = biological target: Serine/threonine-protein kinase ATR (Homo sapiens, UniProt Q13535); assay: Inhibition of ATR (unknown origin) assessed as remaining activity at 1 uM in presence of [gamma33P-ATP] by radiometric assay
[31] = biological target: T1, Serine-protein kinase ATM (Homo sapiens, UniProt Q13315); assay: Inhibition of ATM (unknown origin) assessed as remaining activity at 1 uM preincubated with compound for 30 mins followed by substrate addition and measured after 2 hrs by HTRF method relative to control; conditions: time 2.5 hrs
[32] = Metabolic stability in human liver microsomes assessed as M1 metabolite formation at 1 uM in presence of NADPH-regenerating system by LC-MS/MS analysis; type: ADME, Microsome
[33] = biological target: T1, Serine-protein kinase ATM; assay: Inhibition of ATM (unknown origin) preincubated with compound for 30 mins followed by substrate addition and measured after 2 hrs by HTRF method
[34] = biological target: T1, Serine-protein kinase ATM; assay: Inhibition of ATM (unknown origin) assessed as remaining activity at 0.01 uM preincubated with compound for 30 mins followed by substrate addition and measured after 2 hrs by HTRF method relative to control; conditions: time 2.5 hrs
MCF7 [35] = assay: Synergistic antiproliferative activity against human MCF7 cells assessed as combination index at […] measured after 6 days in presence etoposide by MTT assay; type: functional; conditions: dose lower 100 µM; time 6 day
MCF7 [36] = assay: Synergistic antiproliferative activity against human MCF7 cells assessed as combination index at […] measured after 6 days in presence irinotecan by MTT assay; type: functional; conditions: dose lower 100 µM; time 6 day
MCF7 [37] = assay: cells; conditions: Homo sapiens, MCF7, 144 h

T1 sequence (Q13315 whole entry): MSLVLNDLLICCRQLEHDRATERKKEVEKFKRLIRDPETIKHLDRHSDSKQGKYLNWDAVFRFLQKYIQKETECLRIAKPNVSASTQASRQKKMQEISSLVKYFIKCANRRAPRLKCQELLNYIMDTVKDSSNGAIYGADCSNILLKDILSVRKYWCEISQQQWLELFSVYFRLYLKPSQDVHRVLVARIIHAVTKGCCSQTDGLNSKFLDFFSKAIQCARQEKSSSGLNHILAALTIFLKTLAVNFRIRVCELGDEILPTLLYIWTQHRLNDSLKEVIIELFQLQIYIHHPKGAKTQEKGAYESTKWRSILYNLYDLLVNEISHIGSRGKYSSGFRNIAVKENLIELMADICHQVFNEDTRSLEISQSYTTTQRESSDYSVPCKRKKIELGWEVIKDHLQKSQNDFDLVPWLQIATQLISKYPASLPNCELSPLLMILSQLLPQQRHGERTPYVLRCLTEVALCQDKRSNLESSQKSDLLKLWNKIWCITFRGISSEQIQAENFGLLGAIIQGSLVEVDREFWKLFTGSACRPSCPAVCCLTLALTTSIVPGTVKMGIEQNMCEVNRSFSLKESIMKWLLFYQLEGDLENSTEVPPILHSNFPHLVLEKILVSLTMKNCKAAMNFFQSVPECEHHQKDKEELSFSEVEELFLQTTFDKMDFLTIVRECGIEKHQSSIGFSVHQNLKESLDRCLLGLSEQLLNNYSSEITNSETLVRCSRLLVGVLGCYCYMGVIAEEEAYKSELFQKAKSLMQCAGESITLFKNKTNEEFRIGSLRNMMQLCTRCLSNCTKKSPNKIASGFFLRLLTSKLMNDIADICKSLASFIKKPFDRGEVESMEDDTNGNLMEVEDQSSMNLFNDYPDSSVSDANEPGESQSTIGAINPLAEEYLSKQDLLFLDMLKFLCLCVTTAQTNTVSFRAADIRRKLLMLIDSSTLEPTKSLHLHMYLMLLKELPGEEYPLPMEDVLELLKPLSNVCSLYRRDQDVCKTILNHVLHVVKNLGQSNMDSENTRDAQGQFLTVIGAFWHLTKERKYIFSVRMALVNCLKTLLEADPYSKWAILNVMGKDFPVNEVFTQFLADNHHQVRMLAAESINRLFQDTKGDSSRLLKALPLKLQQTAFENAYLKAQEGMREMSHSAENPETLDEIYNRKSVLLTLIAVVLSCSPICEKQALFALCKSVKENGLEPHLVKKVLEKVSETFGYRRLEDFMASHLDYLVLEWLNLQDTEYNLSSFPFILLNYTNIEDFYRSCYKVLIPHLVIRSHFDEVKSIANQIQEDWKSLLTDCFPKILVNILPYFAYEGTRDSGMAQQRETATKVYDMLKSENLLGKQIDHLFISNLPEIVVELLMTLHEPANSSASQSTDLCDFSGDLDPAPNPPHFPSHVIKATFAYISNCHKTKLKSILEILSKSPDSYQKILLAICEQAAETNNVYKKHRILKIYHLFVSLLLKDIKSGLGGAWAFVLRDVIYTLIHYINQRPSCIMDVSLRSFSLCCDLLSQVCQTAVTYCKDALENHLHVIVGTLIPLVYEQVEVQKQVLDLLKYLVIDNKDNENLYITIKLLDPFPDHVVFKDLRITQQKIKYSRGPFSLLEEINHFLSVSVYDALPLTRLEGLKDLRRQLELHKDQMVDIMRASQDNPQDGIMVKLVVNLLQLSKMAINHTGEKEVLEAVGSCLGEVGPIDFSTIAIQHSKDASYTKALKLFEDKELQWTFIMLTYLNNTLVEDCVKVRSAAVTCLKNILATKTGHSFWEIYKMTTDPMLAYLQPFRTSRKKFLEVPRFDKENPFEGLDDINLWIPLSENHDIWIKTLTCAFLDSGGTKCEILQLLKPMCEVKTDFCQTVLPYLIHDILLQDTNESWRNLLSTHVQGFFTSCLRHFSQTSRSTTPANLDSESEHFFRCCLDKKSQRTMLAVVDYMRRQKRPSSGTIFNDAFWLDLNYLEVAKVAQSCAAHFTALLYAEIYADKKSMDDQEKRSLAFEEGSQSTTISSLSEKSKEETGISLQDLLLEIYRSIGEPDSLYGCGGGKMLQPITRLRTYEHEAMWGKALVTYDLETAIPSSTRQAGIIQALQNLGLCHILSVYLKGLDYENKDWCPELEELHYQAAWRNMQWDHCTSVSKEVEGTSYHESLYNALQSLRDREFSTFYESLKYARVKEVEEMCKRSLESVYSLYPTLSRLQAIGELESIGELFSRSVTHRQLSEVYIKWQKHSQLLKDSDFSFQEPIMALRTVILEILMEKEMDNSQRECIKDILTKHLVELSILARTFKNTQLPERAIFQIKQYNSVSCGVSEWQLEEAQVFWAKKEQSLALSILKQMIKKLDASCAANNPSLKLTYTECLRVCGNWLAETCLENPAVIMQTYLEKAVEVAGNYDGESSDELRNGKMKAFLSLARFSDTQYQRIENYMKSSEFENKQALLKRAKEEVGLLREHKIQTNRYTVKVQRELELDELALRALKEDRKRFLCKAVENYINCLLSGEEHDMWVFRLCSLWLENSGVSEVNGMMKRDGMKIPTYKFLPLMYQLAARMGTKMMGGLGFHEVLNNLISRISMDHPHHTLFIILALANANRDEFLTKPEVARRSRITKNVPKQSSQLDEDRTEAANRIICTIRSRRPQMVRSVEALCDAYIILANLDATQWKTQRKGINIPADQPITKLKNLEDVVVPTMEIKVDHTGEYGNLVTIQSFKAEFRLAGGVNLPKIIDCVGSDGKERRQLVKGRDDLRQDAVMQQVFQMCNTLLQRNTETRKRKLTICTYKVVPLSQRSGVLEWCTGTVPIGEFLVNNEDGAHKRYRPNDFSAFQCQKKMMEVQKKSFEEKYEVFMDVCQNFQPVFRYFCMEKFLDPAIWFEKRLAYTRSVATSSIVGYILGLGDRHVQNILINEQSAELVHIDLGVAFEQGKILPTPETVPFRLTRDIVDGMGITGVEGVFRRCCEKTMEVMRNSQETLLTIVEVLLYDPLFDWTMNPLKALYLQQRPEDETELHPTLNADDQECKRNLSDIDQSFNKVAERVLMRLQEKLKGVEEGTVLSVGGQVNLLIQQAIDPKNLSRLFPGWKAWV

CLH [1]: 293 mL/min/g
Activity [30]: 102%
Activity [31]: -5%
Drug metabolism [32]: Metabolite_Detected
half-life at 1 µM [16]: 0.0833 h
SMILES: CN(C)CCCOc1ccc(-c2ccc3ncc(NC(=O)NC4CCCCC4)nc3c2)cn1

IC50 [33]: 4 nM
CLH [1]: 6.8 mL/min/g
IC50 (HCT-116 [13]): 26.5 nM
half-life at 1 µM [16]: 3.4 h
SMILES: CC(C)NC(=O)N(C)c1cnc2ccc(-c3ccc(OCCCN4CCCC4)nc3F)cc2n1
inhibition at 0.01 µM (HCT-116 [24]): 43.4%

IC50 [33]: 1 nM
CLH [1]: 7.4 mL/min/g
IC50 (HCT-116 [13]): 15.4 nM
half-life at 1 µM [16]: 3.12 h
SMILES: CC(C)NC(=O)N(C)c1cnc2ccc(-c3ccc(OCCCN4CCCCC4)nc3F)cc2n1
inhibition at 0.01 µM (HCT-116 [24]): 68.7%

Second part, the compound before the results:

SMILES: COCc1ccc(-c2ccc3ncc(C(N)=O)c(N[C@@H](C)C4CCOCC4)c3c2)cn1
CLH [1]: 7.2 mL/min/g
IC50 (MCF7 [2]): > 9000 nM
Tmax [3]: 4.8 min
bioavailability [4]: 95.2%
Cmax [5]: 1360 ng/mL
viability at 1 µM (HCT-116 [6]): > 83%
fold change (FC) (MCF7 [7]): 1.4
AUCt [8]: 7772.02 ng·h/mL
Activity (HCT-116 [9]): Active
AUCt [10]: 7396.76 ng·h/mL
fold change (FC) (MCF7 [11]): 2.1
t1/2 [12]: 4.28 h
IC50 (HCT-116 [13]): 20 nM
Vd [14]: 7.68 L/kg
fold change (FC) (SW-620 [15]): 1.5
half-life at 1 µM [16]: 3.22 h
IC50 (HCT-116 [17]): > 9000 nM
Tmax [18]: 1.33 h
Vdss [19]: 6.49 L/kg
Cmax [20]: 3010 ng/mL
Activity (HCT-116 [21]): Active
fold change (FC) (HCT-116 [22]): 6520
CL/F [23]: 23 mL/min/kg
inhibition at 0.01 µM (HCT-116 [24]): 13.2%
fold change (FC) (SW-620 [25]): 3.3
inhibition in vivo at 40 mg/kg (SW-620 [26]): 77.7%
clearance [27]: 22 mL/min/kg
IC50 (SW-620 [28]): > 9000 nM
t1/2 [29]: 3.16 h

SMILES: CN(C)CCCOc1ccc(-c2ccc3ncc4c(c3c2)n(C2CCOCC2)c(=O)n4C)cn1
IC50 (HCT-116 [13]): 0.46 nM
inhibition at 0.01 µM (HCT-116 [24]): 94.3%

SMILES: CN(C)CCCOc1ccc(-c2ccc3ncc(N(C)C(=O)NC4CC4)nc3c2)cn1
IC50 [33]: 8 nM
CLH [1]: 39 mL/min/g
Activity [30]: 114%
viability at 1 µM (HCT-116 [6]): > 83%
IC50 (HCT-116 [13]): 15.3 nM
Activity [34]: 17%
half-life at 1 µM [16]: 0.683 h
inhibition at 0.01 µM (HCT-116 [24]): 43.9%

SMILES: CC(C)NC(=O)N(C)c1cnc2ccc(-c3ccc(OCCCN4CCN(C)CC4)nc3)cc2n1
IC50 [33]: 3 nM
CLH [1]: 13 mL/min/g
viability at 1 µM (HCT-116 [6]): > 83%
IC50 (HCT-116 [13]): 5.41 nM
Activity [34]: 5%
half-life at 1 µM [16]: 1.78 h
inhibition at 0.01 µM (HCT-116 [24]): 73.6%

SMILES: CC(C)NC(=O)N(C)c1cnc2ccc(-c3ccc(OCCCN4CCCC4)nc3)cc2n1
IC50 [33]: 1.75 nM
CLH [1]: 5.2 mL/min/g
IC50 (MCF7 [2]): > 9000 nM
viability at 1 µM (HCT-116 [6]): > 83%
fold change (FC) (MCF7 [7]): 3
CI (MCF7 [35]): <1
fold change (FC) (MCF7 [11]): 13
IC50 (HCT-116 [13]): 1.76 nM
CI (MCF7 [36]): <1
half-life at 1 µM [16]: 4.45 h
fold change (FC) (HCT-116 [22]): 8284
inhibition at 0.01 µM (HCT-116 [24]): 83.8%
IC50 (SW-620 [28]): > 9000 nM

SMILES: COc1cc([C@@H]2c3cc4c(cc3[C@@H](O[C@@H]3O[C@@H]5CO[C@@H](C)O[C@H]5[C@H](O)[C@H]3O)[C@H]3COC(=O)[C@H]23)OCO4)cc(OC)c1O [ETOPOSIDE]
IC50 (MCF7 [37]): 210 nM
